Source: patent publication EP4488279A1, “SUBSTITUTED HEXAHYDRO-2H-PYRAZINO[1,2-A]PYRAZIN-1(6H)-ONE DERIVATIVES AS ACTIVATORS OF HUMAN CASEINOLYTIC PROTEASE P (HSCLPP)” (Centro Atlantico del Medicamento S.A (Ceamed, S.A), priority 2023, dated 2025)
Read-outs that look alike come from different tables or passages of the source.

How the values were obtained:
Yeast + HsCIpP = assay: Yeast growth inhibition screen, yeast expressing human ClpP; format: cell-based; settings: Saccharomyces cerevisiae, 24 h, read-out: Yeast + HsCIpP GI50
From the text: This technique allows to directionally assemble several DNA fragments into one single DNA piece. It is based on plasmid libraries that share the same DNA backbone but differ in the type of the insert. The assembly of the final cassette is based on the "Golden Gate Cloning" method. Human CLPP gene sequence (codon-optimized for yeast translation) was amplified with well-designed primers from a plasmid kindly provided by Dr. Michael David Tyers (University of Montreal). Once amplified, a MoClo reaction was performed to obtain the final integrative cassette. This cassette was composed as follows: • Type 1: ConLS 3' connector. • Type 2: TDH3 gene promoter (strong and constitutive expression). • Type 3: Amplified human CLPP gene. • Type 4: ADH1 gene terminator. • Type 5: ConR1 5' connector. • Type 6: LEU2 gene as selectable marker for yeast. • Type 7: 3' HO gene homology sequence for yeast integration. • Type 8a: KanR-ColE1 sequence for bacterial amplification and antibiotic resistance. • Type 8b: 5' HO gene homology sequence for yeast integration.
Digestion patterns with several restriction enzymes were carried out to confirm the success of the MoClo system. An extra restriction enzyme reaction (Notl) was performed to linearize the DNA fragment and deplete the bacterial part.
(§1) These cells contain mutants in YRS1, YRR1, PDR1 and PDR3 genes, which are involved in polydrug and pleiotropic resistance networks.
Yeast cells were transformed with the linearized cassette and transformant colonies were selected on minimum media without leucine. Independent clones were checked by PCR and positive ones were stored at -80 °C until use.
(§2) The yeast (both HsCpIP+ and HsCIpP-) are incubated in petri dishes with YPD (Yeast extract peptone dextrose) at 25 °C overnight, after which a colony is isolated, suspended in a flask with fresh YPD and incubating again under the same conditions but with agitation. […] 100 µl of this solution was then placed into the appropriated wells of a standard 96-well plate. Stock solutions (DMSO, 10 mM) of the compounds to be tested are diluted in YPD to 2X of their final concentrations to be tested, and 100 µl added to the appropriate wells. 100 µl of YPD was added to wells designated as the negative control wells, while ONC206 (0.5 µM) was used as the positive control. Once all compounds were added to the plate, an initial T = 0 absorbance value was recorded at 600 Nm. The plate was then incubated at 25 °C with gentle shaking for 24 h. The plates can either be read at multiple time points using a TECAN Spark® Multimode Microplate Reader, or at the end of the experiment using a standard spectrophotometer.
(§3) Table 2: Growth inhibition (GI50) values for compounds of the present invention in yeast containing HsCIpP, and yeast without HsCIpP.

Yeast - HsCIpP = assay: Yeast growth inhibition screen, yeast without human ClpP (selectivity control); format: cell-based; settings: Saccharomyces cerevisiae, read-out: Yeast - HsCIpP GI50
Experimental: as §1, §2, §3

4T1 = assay: MTT cell viability assay, 4T1; format: cell-based; settings: Mus musculus, read-out: IC50 4T1 48 H
Experimental: This a mouse epithelial breast cancer cell line classified as being triple negative and mimics human breast cancer; stage IV.
Cell viability was assayed by measuring the mitochondrial reduction of the tetrazolium salt 3-(4,5-methyltiazol-2yl)-2,5diphenyl-tetrazolium bromide] (MTT) (Applichen; A2231,0010) [Mosmann T. J Immunol Methods. […] Oncogene. […] Cells were seeded at a density according to their exponential growth phase (normally 1000 to 5000/well). The cells were cultured at 37 °C in the dark in air containing 5% CO2. After 24h either vehicle (0.05% DMSO), or drug, was added to culture medium at the indicated concentrations (10 to 0,01microM). […] The medium was then removed, and the precipitated formazan was solubilized by the addition of DMSO (200 µL).

MDA-MB-231 = assay: MTT cell viability assay, MDA-MB-231; format: cell-based; settings: Homo sapiens, MDA-MB-231 cells, 72 H, average of at least two independent experiments
Experimental: This a human breast cancer cell line derived from a metastatic site from a person.
(§4) Cell viability was assayed by measuring the mitochondrial reduction of the tetrazolium salt 3-(4,5-methyltiazol-2yl)-2,5diphenyl-tetrazolium bromide] (MTT) (Applichen; A2231,0010) [Mosmann T. J Immunol Methods. […] Oncogene. […] Cells were seeded at a density according to their exponential growth phase (normally 1000 to 5000/well). The cells were cultured at 37 °C in the dark in air containing 5% CO2. After 24h either vehicle (0.05% DMSO), or drug, was added to culture medium at the indicated concentrations (10 to 0,01microM). After another 72 h, MTT (0.3 mg/ml) was added to cells, followed by incubation for 2-4h at 37 °C in the dark. The medium was then removed, and the precipitated formazan was solubilized by the addition of DMSO (200 µL).

U2 OS = assay: MTT cell viability assay, U2 OS; format: cell-based; settings: Homo sapiens, U2OS, U2 OS cells, 72 H, average of at least two independent experiments
Experimental: U2 OS [American Type Culture Collection (ATCC) reference number HTB-96]. This is a human bone cancer (a moderately differentiated sarcoma) cell derived from an osteosarcoma patient.
as §4

DU-145 = assay: MTT cell viability assay, DU-145; format: cell-based; settings: Homo sapiens, DU-145 cells, 72 H, average of at least two independent experiments
Experimental: This a human prostate cancer cell line derived from a metastatic site (brain) of a person.
as §4

PANC1 = assay: MTT cell viability assay, PANC1; format: cell-based; settings: Homo sapiens, PANC-1, PANC1 cells, 72 H, average of at least two independent experiments
Experimental: This a human cancer cell line derived from the pancreas of a person.
as §4

MDA-MB-231 cells = assay: cells; settings: for GI50 / CC50: Homo sapiens, MDA-MB-231, 72 h; for CC50: read-out: LC50; for Result / TGI50: MDA-MB-231 72 H, SRB; for Result: cytostatic or not; for TGI50: total growth inhibition concentration
Experimental: In order to measure the cell population at the time zero (Tz) a plate of cells was stained with SRB 24 hours after seeding. The cell monolayers are fixed with cold 5% (w/v) trichloroacetic acid for 60 minutes at 4°C. The excess of trichloroacetic acid is removed by washing five times with distilled water. Sulforhodamine B (SRB) solution [50 µL at 0.4%(w/v) in 1% acetic acid] is added to each well and plates are incubated for 8 minutes at room temperature. The excess dye is removed by washing five times with 1% (v/v) acetic acid. The bound stain is subsequently solubilized with (100 µL) 10 mM trizma base and the absorbance is read on automated plate reader at a wavelength of 550 nm.
Compounds at various concentrations were added to an identical cell-seeded (non-treated) plate and incubated at 37°C (5% CO2) for an additional […]. Cells were fixed and stained following the same protocol. The measurement of the cell population after 72 hours in the presence of the drug is (Ti). Several wells in the same plate were treated with the control vehicle.
Using the absorbance measurements, time zero (Tz), control growth (C), and test growth in the present of the compound (Ti) the percentage growth inhibition is calculated as: • [(Ti-Tz)/(C-Tz)] x 100 for concentrations for which Ti >/= Tz • [(Ti-Tz)/Tz] x 100 for concentrations for which Ti <Tz
These values were determined using GraphPad software v5 (San Diego, CA).

[1] = yeast without HsCIpP, 24 h at 25 °C, absorbance at 600 nm
[2] = 4T1 cells, 48 H, MTT, average of at least two independent experiments

Compound	GI50 (Yeast + HsCIpP)	GI50 (Yeast - HsCIpP; [1])	IC50 (4T1; [2])	IC50 (MDA-MB-231)	IC50 (U2 OS)	IC50 (DU-145)	IC50 (PANC1)	GI50 (MDA-MB-231 cells)	CC50 (MDA-MB-231 cells)	Result (MDA-MB-231 cells)	TGI50 (MDA-MB-231 cells)	GI50 (Yeast - HsCIpP; 24 h)	IC50 (4T1; 4T1, 48 h)
N#Cc1cccc(CN2CCN3CCN(Cc4ccc(F)cc4)C(=O)C3C2)c1 (centres unmarked) [Compound 1]	150 nM	> 10000 nM	103 nM	120 nM	220 nM	200 nM	195 nM	–	–	–	–	–	–
N#Cc1cccc(CN2CCN3CCN(Cc4cccc(Cl)c4)C(=O)C3C2)c1 (centres unmarked) [Compound 2]	120 nM	> 10000 nM	165 nM	145 nM	250 nM	250 nM	140 nM	–	–	–	–	–	–
N#Cc1cccc(CN2CCN3CCN(Cc4ccc(Cl)cc4)C(=O)C3C2)c1 (centres unmarked) [Compound 3]	65 nM	> 10000 nM	< 100 nM	< 100 nM	< 100 nM	< 100 nM	< 100 nM	< 100 nM	> 10000 nM	Cytostatic	>10 µM	–	–
O=C1C2CN(Cc3cccc(F)c3)CCN2CCN1Cc1ccc(F)cc1 (centres unmarked) [Compound 5]	140 nM	> 10000 nM	190 nM	240 nM	400 nM	300 nM	250 nM	–	–	–	–	–	–
O=C1C2CN(Cc3cccc(F)c3)CCN2CCN1Cc1ccc(Cl)cc1 (centres unmarked) [Compound 6]	60 nM	> 10000 nM	150 nM	190 nM	300 nM	250 nM	190 nM	–	–	–	–	–	–
O=C1C2CN(CCCCC(F)(F)F)CCN2CCN1Cc1ccc(F)cc1 (centres unmarked) [Compound 7]	2050 nM	> 10000 nM	340 nM	430 nM	500 nM	500 nM	330 nM	–	–	–	–	–	–
O=C1C2CN(CCCCC(F)(F)F)CCN2CCN1Cc1ccc(C(F)(F)F)cc1 (centres unmarked) [Compound 8]	1650 nM	> 10000 nM	310 nM	400 nM	2000 nM	–	350 nM	–	–	–	–	–	–
O=C1C2CN(Cc3ccccc3)CCN2CCN1Cc1cccc(Cl)c1 (centres unmarked) [Compound 9]	690 nM	> 10000 nM	930 nM	935 nM	1140 nM	1080 nM	830 nM	–	–	–	–	–	–
O=C1C2CN(Cc3ccccc3)CCN2CCN1Cc1ccc(C(F)(F)F)cc1 (centres unmarked) [Compound 10]	180 nM	> 10000 nM	650 nM	635 nM	1000 nM	640 nM	640 nM	–	–	–	–	–	–
O=C1C2CN(Cc3ccccc3)CCN2CCN1Cc1ccc(F)cc1 (centres unmarked) [Compound 11]	620 nM	> 10000 nM	515 nM	490 nM	800 nM	410 nM	600 nM	–	–	–	–	–	–
N#Cc1cccc(CN2CCN3CCN(Cc4ccc(C(F)(F)F)cc4)C(=O)C3C2)c1 (centres unmarked) [Compound 12]	75 nM	> 10000 nM	< 100 nM	< 100 nM	200 nM	100 nM	< 100 nM	< 100 nM	> 10000 nM	Cytostatic	>10 µM	–	–
O=C1C2CN(Cc3cccc(F)c3)CCN2CCN1Cc1cccc(C(F)(F)F)c1 (centres unmarked) [Compound 13, 8-(3-fluorobenzyl)-2-(3-(trifluoromethyl)benzyl)hexahydro-2H-pyrazinof1,2-alpyrazin-1(6H)-one]	40 nM	> 10000 nM	170 nM	190 nM	300 nM	250 nM	165 nM	420 nM	> 10000 nM	Cytostatic	>10 µM	–	–
O=C1C2CN(Cc3ccc(C(F)(F)F)cc3)CCN2CCN1Cc1ccc(C(F)(F)F)cc1 (centres unmarked) [Compound 14, 8-(4-trifluoromethylbenzyl)-2-(4-(trifluoromethyl)benzyl)hexahydro-2H-pyrazino[1,2-a]pyrazin-1(6H)-one]	2580 nM	–	2220 nM	–	–	–	240 nM	–	–	–	–	> 10000 nM	–
Cc1ccccc1CN1C(=O)C2=C(CCN(Cc3ccccc3)C2)N2CCN=C12 [ONC201, reference compound]	–	–	–	2280 nM	4800 nM	1710 nM	1720 nM	–	–	Cytostatic	>10 µM	–	2220 nM
O=C1C2=C(CCN(Cc3ccccc3)C2)N2CCN=C2N1Cc1ccc(F)cc1F [ONC206, reference compound]	4560 nM	–	600 nM	600 nM	800 nM	370 nM	300 nM	730 nM	–	Cytostatic	>10 µM	> 10000 nM	–
